According to PMC11507441, “Oilseed Cakes: A Promising Source of Antioxidant, and Anti-Inflammatory Agents—Insights from Lactuca sativa” (International Journal of Molecular Sciences, 2024):
In brackets after ≈: the same amount, converted by molar mass.

Key:
[1] = ABTS antioxidant assay; assay type: biochemical; parameters: IC50 in ABTS assay: unit not given beside the values; conditions: isolated compounds from lettuce seedcake; unit not given
Procedure: The experiment was performed in triplicate according to Zaky et al.. The absorbance of control of the resulting green-blue solution (ABTS* radical solution) was recorded at λ max 734 nm.

[2] = system: C. albicans; test: Antimicrobial screening, zone of inhibition; assay type: cell-based; conditions: for zone of inhibition at 1000 µg/mL: Candida albicans, isolated compounds 1 mg/mL, read-out: C. Albicans Diameter of Inhibition Zone (mm); for C. Albicans %Activity Index: 1 mg/mL
Procedure: (§1) The procedure was performed according to […] et al.. A comparison of the extract's zone of inhibition to that of a reference antibiotic's activity index was determined using the following equation:Activity index = (the inhibition zone of extract/the inhibition zone of the standard) × 100

[3] = system: E. coli; test: Antimicrobial screening, zone of inhibition; assay type: cell-based; conditions: for zone of inhibition at 1000 µg/mL: Escherichia coli, isolated compounds 1 mg/mL, read-out: E. coli Diameter of Inhibition Zone (mm); for E. coli %Activity Index: 1 mg/mL
Procedure: as §1

[4] = system: S. aureus; test: Antimicrobial screening, zone of inhibition; assay type: cell-based; conditions: for S. aureus %Activity Index: 1 mg/mL
Procedure: as §1

[5] = system: P. aeruginosa; test: Antimicrobial screening, zone of inhibition; assay type: cell-based; conditions: Table 1; for zone of inhibition at 1000 µg/mL: Pseudomonas aeruginosa, isolated compounds 1 mg/mL, read-out: P. aeruginosa Diameter of Inhibition Zone (mm)
Procedure: The procedure was performed according to Stylianakis et al.. A comparison of the extract’s zone of inhibition to that of a reference antibiotic’s activity index was determined using the following equation:Activity index = (the inhibition zone of extract/the inhibition zone of the standard) × 100

[6] = system: HepG-2 cancer cell line; test: Cytotoxic activity (MTT assay); assay type: cell-based; conditions: for IC50: Homo sapiens, HepG2, read-out: In Vitro Cytotoxicity IC50 (µg/mL) HepG-2
Procedure: (§2) The HPLC was performed in the Institute for Plant Biology, TU Braunschweig, using a Young Lin quaternary pump, vacuum degasser, column oven (40 °C), diode array detector (YL9160 PDA), and a Midas Spark Holland autosampler. UV spectra (λ max) were measured in the central laboratory of the Faculty of Pharmaceutical Science at Mansoura University using spectroscopic methanol with an ultraviolet-visible spectrophotometer (Shimadzu 1601 PC, version TCC-240A, Kyoto, Japan). The NMR unit of Mansoura University’s Faculty of Pharmacy obtained nuclear magnetic resonance spectra (^1H-NMR, ^13C-NMR, DEPT-Q, APT, HSQC, and HMBC) using a Bruker DRX 600 NMR spectrometer (600 and 150 MHz for ^1H and ^13C-NMR, respectively) and with the Bruker Corporation Avance III 400 spectrometer, which measures ^1H and ^13C-NMR at 400 and 100 MHz, respectively. The types of solvents that are used are CDCl3, CD3OD, and DMSO-d6. For normal phase chromatography, silica gel G 60–230 mesh (Merck, Darmstadt, Germany) was packed using a wet or dry method in the specified solvent. The purchase of Normal Human lung fibroblast (WI-38), hepatic cancer cell lines (HePG-2), and mammary gland (MCF-7) cell lines from ATCC was made possible by the Holding firm for biological goods and vaccines (VACSERA), which is based in Cairo, Egypt.
(§3) Using the MTT test, the inhibitory effects of substances on cell growth were ascertained using the cell lines compared to normal lung fibroblast cells (WI-38). The selectivity index was calculated via the Selectivity index (SI) equation: SI equals IC50 normal/IC50 cancer.

[7] = system: MCF-7 cancer cell line; test: Cytotoxic activity (MTT assay); assay type: cell-based
Procedure: as §2, §3

[8] = Cytotoxic activity (MTT assay), normal cells; assay type: cell-based; conditions: human; MTT; normal cells; read-out: In Vitro Cytotoxicity IC50 (µg/mL) WI-38
Procedure: as §2, §3

[9] = Table 1, relative to clotrimazole
[10] = Table 1, relative to ciprofloxacin
[11] = IC50 normal (WI-38)/IC50 cancer
[12] = Table S1, extracts and fractions 1 mg/mL
[13] = Table S1, relative to ampicillin standard

O=c1cc(-c2ccc(O)cc2)oc2cc(O[C@@H]3O[C@H](CO)[C@@H](O)[C@H](O)[C@H]3O)cc(O)c12 [Compound 4, apigenin 7-O-β-D-glucoside]
IC50 in ABTS assay [1]: 51.27 ± 0.25 | zone of inhibition at 1000 µg/mL ([2]; Table 1): 5.95 ± 0.07 mm | C. Albicans %Activity Index [2, 9]: 22.1% | zone of inhibition at 1000 µg/mL ([3]; Table 1): 6.8 ± 0.15 mm | E. coli %Activity Index [3, 10]: 26.1% | zone of inhibition at 1000 µg/mL ([4]; Staphylococcus aureus, Table 1, isolated compounds 1 mg/mL, read-out: S. aureus Diameter of Inhibition Zone (mm)): 11.9 ± 0.15 mm | S. aureus %Activity Index [4, 10]: 50% | zone of inhibition at 1000 µg/mL [5]: 9.8 ± 0.15 mm | P. aeruginosa %Activity Index ([5]; 1 mg/mL, relative to ciprofloxacin): 42.8% | IC50 [6]: 43.4 ± 2.5 µg/mL (≈ 100 µM) | Selectivity Index HepG2 [6, 11]: 1.9 | IC50 ([7]; Homo sapiens, MCF7, read-out: In Vitro Cytotoxicity IC50 (µg/mL) MCF-7): 39.8 ± 2.2 µg/mL (≈ 92 µM) | Selectivity Index MCF-7 [7, 11]: 2.1 | IC50 [8]: 84.3 ± 4.3 µg/mL (≈ 195 µM)

O=C(O)c1cn(C2CC2)c2cc(N3CCNCC3)c(F)cc2c1=O [Ciprofloxacin, ciprofloxacin, reference compound]
zone of inhibition at 1000 µg/mL ([3]; Table 1): 26 ± 0.3 mm | zone of inhibition at 1000 µg/mL [5]: 22.87 ± 0.15 mm

Clc1ccccc1C(c1ccccc1)(c1ccccc1)n1ccnc1 [Clotrimazole, clotrimazole, reference compound]
zone of inhibition at 1000 µg/mL ([2]; Table 1): 26.9 ± 0.1 mm | C. Albicans %Activity Index [2, 9]: 100% | C. Albicans %Activity Index ([2]; Table S1, relative to clotrimazole standard): 100% | C. Albicans Diameter of inhibition zone (mm) [2, 12]: 25.9±0.1 mm

CC1(C)S[C@@H]2[C@H](NC(=O)[C@H](N)c3ccccc3)C(=O)N2[C@H]1C(=O)O [Ampicillin, ampicillin, reference compound]
E. coli %Activity Index [3, 13]: 100% | E. coli Diameter of inhibition zone (mm) [3, 12]: 23.9 ± 0.15 mm | S. aureus %Activity Index [4, 13]: 100% | S. aureus Diameter of inhibition zone (mm) [4, 12]: 22.87±0.15 mm

COc1cccc2c1C(=O)c1c(O)c3c(c(O)c1C2=O)C[C@@](O)(C(=O)CO)C[C@@H]3O[C@H]1C[C@H](N)[C@H](O)[C@H](C)O1 [Doxorubicin, doxorubicin, reference compound]
IC50 [6]: 4.5 ± 0.2 µg/mL (≈ 8.28 µM)
